Measurements reported in patent US5409933A, “Quinoline derivatives and processes for preparing the same” (priority 1993, dated 1995).
Structures can show the parent of a compound that is named as a salt. Where two headings read alike, the source gives them in different places.

Experiments:
Assay in all cases: In Vitro Anti-Bacterial Activity Test (MIC, agar dilution)
Format in all cases: cell-based
Escherichia coli 1507E = conditions: Muller-Hinton agar, 37° C.
In short: (§1)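 MIC values come from the lowest compound level in Muller-Hinton agar that stopped bacterial growth after 18 h at 37° C. Inocula contained 10^7 C.F.U./ml, and ciprofloxacin was run alongside as the reference antibacterial.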

[1] = tested on: Pseudomonas aeruginosa 1771; conditions: Pseudomonas aeruginosa 1771; Muller-Hinton agar, 37° C., 18 hours; read-out: MIC
In short: as §1

Escherichia coli DC2 = tested on: Escherichia coli DC2
In short: as §1

Escherichia coli 078 = tested on: Escherichia coli 078
In short: as §1

[2] = tested on: Pseudomonas aeruginosa 9027; conditions: Muller-Hinton agar, 37° C., 18 hours, read-out: MIC
In short: as §1

Salmonella typhimurium = conditions: Salmonella enterica
In short: as §1

[3] = tested on: Enterobacter cloacae 1321E; conditions: Enterobacter cloacae 1321E; Muller-Hinton agar, 37° C., 18 hours; read-out: MIC
In short: as §1

[4] = tested on: Streptococcus pyogenes 308A; conditions: Muller-Hinton agar, 37° C., 18 hours, read-out: MIC
In short: as §1

[5] = tested on: Streptococcus faecium MD8b; conditions: Enterococcus faecium, Muller-Hinton agar, 37° C., 18 hours, read-out: MIC
In short: as §1

[6] = tested on: Streptococcus pyogenes 77A
In short: as §1

[7] = tested on: Staphylococcus aureus 503; conditions: Staphylococcus aureus 503; Muller-Hinton agar, 37° C., 18 hours; read-out: MIC
In short: as §1

[8] = tested on: Pseudomonas aeruginosa 1592E; conditions: Muller-Hinton agar, 37° C., 18 hours, read-out: MIC
In short: as §1

Klebsiella oxytoca 1082E = conditions: Klebsiella oxytoca 1082E; Muller-Hinton agar, 37° C., 18 hours; read-out: MIC
In short: as §1

[9] = tested on: Staphylococcus aureus 285; conditions: Staphylococcus aureus, 285, 18 h, Staphylococcus aureus 285; Muller-Hinton agar, 37° C., 18 hours; read-out: MIC
In short: as §1

[10] = tested on: Klebsiella aerogenes 1522E; conditions: Klebsiella aerogenes, 1522E, 18 h
In short: as §1

Escherichia coli TEM = conditions: Escherichia coli, 18 h, Muller-Hinton agar, 37° C.
In short: (§2)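 Read-out is visual growth inhibition on compound-containing Muller-Hinton agar, giving the MIC. Bacteria (10^7 C.F.U./ml) incubate 18 hours at 37° C.; ciprofloxacin is included as comparator drug.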

Enterobacter cloacae P99 = conditions: Enterobacter cloacae, P99, 18 h
In short: as §2

[11] = tested on: Pseudomonas aeruginosa 1771M; conditions: Pseudomonas aeruginosa, 1771M, 18 h, Muller-Hinton agar, 37° C.
In short: as §1

Escherichia coli DC0 = conditions: Muller-Hinton agar, 37° C., 18 hours, read-out: MIC
In short: as §1

[12] = tested on: Staphylococcus aureus SG511; conditions: Staphylococcus aureus SG511; Muller-Hinton agar, 37° C., 18 hours; read-out: MIC
In short: as §1

[13] = Salmonella typhimurium, Muller-Hinton agar, 37° C., 18 hours, read-out: MIC
[14] = Streptococcus pyogenes 77A, Muller-Hinton agar, 37° C., 18 hours, read-out: MIC
[15] = Klebsiella aerogenes 1522E, Muller-Hinton agar, 37° C., 18 hours, read-out: MIC
[16] = Escherichia coli DC2, Muller-Hinton agar, 37° C., 18 hours, read-out: MIC

| Compound | MIC (Escherichia coli 1507E; Escherichia coli, 1507E, 18 h) [µg/mL] | MIC [1] [µg/mL] | MIC (Escherichia coli DC2; Escherichia coli, DC2, 18 h) [µg/mL] | MIC (Escherichia coli 078; Escherichia coli, 078, 18 h) [µg/mL] | MIC [2] [µg/mL] | MIC (Salmonella typhimurium; [13]) [µg/mL] | MIC [3] [µg/mL] | MIC [4] [µg/mL] | MIC [5] [µg/mL] | MIC [6, 14] [µg/mL] | MIC [7] [µg/mL] | MIC [8] [µg/mL] | MIC (Klebsiella oxytoca 1082E) [µg/mL] | MIC [9] [µg/mL] | MIC [10, 15] [µg/mL] | MIC (Escherichia coli TEM) [µg/mL] | MIC (Enterobacter cloacae P99) [µg/mL] | MIC [11] [µg/mL] | MIC (Escherichia coli DC0) [µg/mL] | MIC [12] [µg/mL] | also measured |
| --- | --- | --- | --- | --- | --- | --- | --- | --- | --- | --- | --- | --- | --- | --- | --- | --- | --- | --- | --- | --- | --- |
| CS(=O)(=O)CC(=O)c1cn(C2CC2)c2c(Cl)c(N3CCC(N)C3)c(F)cc2c1=O (stereo not drawn) [Example 33, 1-cyclopropyl-6-fluoro-8-chloro-7-(3-aminopyrrolidin-1-yl)-3-(2-methanesulfonylacetyl)-1,4-dihydro-4-oxoquinoline hydrochloride] | 0.195 | 1.56 | 0.098 | 0.195 | 1.56 | 0.781 | 0.098 | 3.12 | 6.25 | 3.12 | 0.781 | 1.56 | 0.391 | 1.56 | 0.391 | 0.098 | 0.195 | 0.781 | 0.195 | 1.56 | – |
| CCOC(=O)C(C(=O)OCC)C(=O)c1cn(C2CC2)c2c(Cl)c(N3CC4=C(CNC4)C3)c(F)cc2c1=O [Example 36, 1-cyclopropyl-6-fluoro-8-chloro-7-(3,7-diazabicyclo[3.3.0]oct-1,5-en-3-yl)-3-(2,2-diethoxycarbonylacetyl)-1,4-dihydro-4-oxoquinoline hydrochloride] | 0.025 | 0.781 | 0.049 | 0.007 | 1.56 | 0.025 | 0.025 | 0.391 | 0.195 | 0.098 | 0.049 | 0.781 | 0.007 | 0.049 | 0.025 | 0.025 | 0.025 | 0.195 | 0.195 | 0.025 | – |
| CC(=O)CC(=O)c1cn(C2CC2)c2c(Cl)c(N3CCC(N)C3)c(F)cc2c1=O (stereo not drawn) [Example 37, 1-cyclopropyl-6-fluoro-8-chloro-7-(3-aminopyrrolidin-1-yl)-3-(2-acetoacetyl)-1,4-dihydro-4-oxoquinoline hydrochloride] | 0.195 | 1.56 | 0.391 | 0.391 | 1.56 | 0.195 | 0.195 | 1.56 | 3.12 | 3.12 | 0.781 | 3.12 | 0.195 | 0.781 | 0.391 | 0.098 | 0.195 | 0.781 | 0.781 | 0.781 | – |
| NC1CCN(c2c(F)cc3c(=O)c(C(=O)CC(=O)C(F)(F)F)cn(C4CC4)c3c2Cl)C1 (stereo not drawn) [Example 38, 1-cyclopropyl-6-fluoro-8-chloro-7-(3-aminopyrrolidin-1-yl)-3-(2-trifluoroacetoacetyl)-1,4-dihydro-4-oxoquinoline hydrochloride] | 0.098 | 1.56 | 0.098 | 0.195 | 1.56 | 0.049 | 0.049 | 1.56 | 0.781 | – | 0.391 | 0.781 | 0.025 | 0.781 | 0.098 | 0.195 | 0.098 | 0.391 | 0.195 | 0.391 | MIC ([6]; Streptococcus pyogenes, 77A, 18 h): 0.781 µg/mL |
| CCOC(=O)C(C#N)C(=O)c1cn(C2CC2)c2c(Cl)c(N3CCC(N)C3)c(F)cc2c1=O (stereo not drawn) [Example 39, 1-cyclopropyl-6-fluoro-8-chloro-7-(3-aminopyrrolidin-1-yl)-3-(2-cyano-2-ethoxycarbonylacetyl)-1,4-dihydro-4-oxoquinoline hydrochloride] | 0.781 | 12.5 | – | 0.049 | 12.5 | – | 0.049 | 25 | 6.25 | 6.25 | 1.56 | 12.5 | 0.049 | 1.56 | 0.781 | 0.391 | 0.391 | 3.12 | 6.25 | 1.56 | MIC (Escherichia coli DC2; [16]): 3.12 µg/mL; MIC (Salmonella typhimurium; TYPHIMURIUM, 18 h): 0.391 µg/mL |
| CCOC(=O)C(C#N)C(=O)c1cn(C2CC2)c2c(Cl)c(N3CC=C(CNC)C3)c(F)cc2c1=O (stereo not drawn) [Example 40, 1-cyclopropyl-6-fluoro-8-chloro-7-(3-methylaminomethyl-2,5-dihydropyrrol-1-yl)-3-(2-cyano-2-ethoxycarbonylacetyl)-1,4-dihydro-4-oxoquinoline hydrochloride] | 0.781 | 6.25 | – | 0.098 | 12.5 | 0.195 | 0.049 | 25 | 12.5 | 12.5 | 1.56 | 6.25 | 0.049 | 3.12 | – | 0.391 | 0.391 | 3.12 | 6.25 | 1.56 | MIC (Escherichia coli DC2; [16]): 3.12 µg/mL; MIC [10]: 0.391 µg/mL |
| CCOC(=O)C(C#N)C(=O)c1cn(C2CC2)c2c(Cl)c(N3CC4=C(CNC4)C3)c(F)cc2c1=O (stereo not drawn) [Example 41, 1-cyclopropyl-6-fluoro-8-chloro-7-(3,7-diazabicyclo[3.3.0]oct-1,5-en-3-yl)-3-(2-cyano-2-ethoxycarbonylacetyl)-1,4-dihydro-4-oxoquinoline hydrochloride] | 0.391 | 3.12 | 1.56 | 0.049 | 6.25 | 0.098 | 0.049 | 25 | 25 | 12.5 | 6.25 | 3.12 | 0.049 | 6.25 | – | 0.195 | 0.098 | 1.56 | 3.12 | 3.12 | MIC [10]: 0.195 µg/mL |
| N#CCC(=O)c1cn(C2CC2)c2c(Cl)c(N3CCC(N)C3)c(F)cc2c1=O (stereo not drawn) [Example 42, 1-cyclopropyl-6-fluoro-8-chloro-7-(3-aminopyrrolidin-1-yl)-3-(2-cyanoacetyl)-1,4-dihydro-4-oxoquinoline hydrochloride] | 0.195 | 6.25 | – | 0.098 | 2.5 | 1.56 | 0.098 | 25 | 12.5 | 12.5 | 3.12 | 12.5 | 0.098 | 3.12 | 1.56 | 0.781 | 0.781 | 6.25 | 12.5 | 6.25 | MIC (Escherichia coli DC2; [16]): 3.12 µg/mL |
| CNCC1=CCN(c2c(F)cc3c(=O)c(C(=O)CC#N)cn(C4CC4)c3c2Cl)C1 [Example 43, 1-cyclopropyl-6-fluoro-8-chloro-7-(3-methylaminomethyl-2,5-dihydropyrrol-1-yl)-3-(2-cyanoacetyl)-1,4-dihydro-4-oxoquinoline hydrochloride] | – | 3.12 | 1.56 | – | 6.25 | 0.195 | 0.049 | 25 | 12.5 | 25 | 0.195 | 12.5 | 0.098 | 3.12 | 0.781 | 1.56 | 0.391 | 1.56 | 3.12 | 3.12 | MIC (Escherichia coli 1507E; 18 hours, read-out: MIC): 12.5 µg/mL; MIC (Escherichia coli 078; Escherichia coli 078, Muller-Hinton agar, 37° C., 18 hours, read-out: MIC): 6.25 µg/mL |
